How the values were obtained:
HL-60 = HL-60 differentiation potency; format: cell-based; conditions: Homo sapiens
in vitro = conditions: human

Row | Structure (SMILES) | EC50 (HL-60) | IC50 (in vitro)
1 | C[C@H]1[C@@H](OCC2CCN(C(=O)C(=O)O)CC2)O[C@@H]2O[C@@]3(C)CC[C@H]4[C@H](C)CC[C@@H]1[C@@]24OO3 [Compound 203, 2-oxo-2-(4-((((3R,5aS,6R,8aS, 9R,10S,12R, 12aR)-3,6,9-trimethyldeca-hydro-12H-3,12-epoxy[1,2]dioxepino[4,3-i]isochromen-10-yl)oxy)methyl)piperidin-1-yl)acetic acid] | 17500 nM | > 20000 nM
2 | C[C@H]1[C@@H](Oc2ccc(C(=O)N[C@@H](CC3CCC3)C(=O)O)cc2)O[C@@H]2O[C@@]3(C)CC[C@H]4[C@H](C)CC[C@@H]1[C@@]24OO3 [Compound 205, (S)-3-cyclobutyl-2-(4-(((3R,5aS,6R,8aS, 9R,10S,12R, 12aR)-3,6,9-trimethyldeca-hydro-12H-3,12-epoxy[1,2]dioxepino[4,3-i]isochromen-10-yl)oxy)benzamido) propanoic acid] | 35.1 nM | 110 nM
3 | C[C@H]1[C@@H](OC(C)(C)[C@H]2C[C@@H](C(=O)O)C2)O[C@@H]2O[C@@]3(C)CC[C@H]4[C@H](C)CC[C@@H]1[C@@]24OO3 [Compound 206, (1R,3s)-3-(2-(((3R,5aS,6R,8aS, 9R,10S,12R, 12aR)-3,6,9-trimethyldeca-hydro-12H-3,12-epoxy[1,2]dioxepino[4,3-i]isochromen-10-yl)oxy)propan-2-yl)cyclobutane-1-carboxylic acid] | 3830 nM | > 20000 nM
4 | C[C@H]1[C@@H](Oc2ccc(C(=O)N3[C@H](C(=O)O)C[C@@H]4CCC[C@@H]43)cc2)O[C@@H]2O[C@@]3(C)CC[C@H]4[C@H](C)CC[C@@H]1[C@@]24OO3 [Compound 207, (2S,3aS,6aS)-1-(4-(((3R,5aS,6R,8aS, 9R,10S,12R, 12aR)-3,6,9-trimethyldeca-hydro-12H-3,12-epoxy[1,2]dioxepino[4,3-i]isochromen-10-yl)oxy)benzoyl) octahydrocyclo penta[b]pyrrole-2-carboxylic acid] | 150 nM | 680 nM
5 | C[C@H]1[C@@H](Oc2ccc3[nH]c(C(=O)O)cc3c2)O[C@@H]2O[C@@]3(C)CC[C@H]4[C@H](C)CC[C@@H]1[C@@]24OO3 [Compound 208, 5-(((3R,5aS,6R,8aS, 9R,10S,12R, 12aR)-3,6,9-trimethyldeca-hydro-12H-3,12-epoxy[1,2]dioxepino[4,3-i]isochromen-10-yl)oxy)-1H-indole-2-carboxylic acid] | 69.3 nM | 370 nM
6 | C[C@H]1[C@@H](OCC2CCC(C(=O)O)O2)O[C@@H]2O[C@@]3(C)CC[C@H]4[C@H](C)CC[C@@H]1[C@@]24OO3 (stereo partly drawn) [Compound 209, 5-((((3R,5aS,6R,8aS, 9R,10S,12R, 12aR)-3,6,9-trimethyldeca-hydro-12H-3,12-epoxy[1,2]dioxepino[4,3-i]isochromen-10-yl)oxy)methyl) tetrahydrofuran-2-carboxylic acid] | 15800 nM | > 20000 nM
7 | C[C@H]1[C@@H](OC[C@@]2(F)CCC(C(=O)O)C2)O[C@@H]2O[C@@]3(C)CC[C@H]4[C@H](C)CC[C@@H]1[C@@]24OO3 (stereo partly drawn) [Compound 210, (3R)-3-fluoro-3-((((3R,5aS,6R,8aS, 9R,10S,12R, 12aR)-3,6,9-trimethyldeca-hydro-12H-3,12-epoxy[1,2]dioxepino[4,3-i]isochromen-10-yl)oxy)methyl) cyclopentane-1-carboxylic acid] | 2500 nM | 7580 nM
8 | C[C@H]1[C@@H](OCC2(O)CCC(C(=O)O)CC2)O[C@@H]2O[C@@]3(C)CC[C@H]4[C@H](C)CC[C@@H]1[C@@]24OO3 (stereo partly drawn) [Compound 211, 4-hydroxy-4-((((3R,5aS,6R,8aS, 9R,10S,12R, 12aR)-3,6,9-trimethyldeca-hydro-12H-3,12-epoxy[1,2]dioxepino[4,3-i]isochromen-10-yl)oxy)methyl) cyclohexane-1-carboxylic acid] | 11400 nM | > 20000 nM
9 | C[C@H]1[C@@H](OC[C@H]2CCC(C(=O)O)CO2)O[C@@H]2O[C@@]3(C)CC[C@H]4[C@H](C)CC[C@@H]1[C@@]24OO3 (stereo partly drawn) [Compound 212, (6R)-6-((((3R,5aS,6R,8aS, 9R,10S,12R, 12aR)-3,6,9-trimethyldeca-hydro-12H-3,12-epoxy[1,2]dioxepino[4,3-i]isochromen-10-yl)oxy)methyl) tetrahydro-2H-pyran-3-carboxylic acid] | 20500 nM | > 20000 nM
10 | C[C@H]1[C@@H](OCC(=O)Nc2ccc(C(=O)O)cc2)O[C@@H]2O[C@@]3(C)CC[C@H]4[C@H](C)CC[C@@H]1[C@@]24OO3 [Compound 213, 4-(2-(((3R,5aS,6R,8aS, 9R,10S,12R, 12aR)-3,6,9-trimethyldeca-hydro-12H-3,12-epoxy[1,2]dioxepino[4,3-i]isochromen-10-yl)oxy)actamido) benzoic acid] | 325 nM | > 20000 nM
11 | C[C@H]1[C@@H](Oc2ccc3cc(C(=O)O)ccc3c2)O[C@@H]2O[C@@]3(C)CC[C@H]4[C@H](C)CC[C@@H]1[C@@]24OO3 [Compound 214, 6-(((3R,5aS,6R,8aS, 9R,10S,12R, 12aR)-3,6,9-trimethyldeca-hydro-12H-3,12-epoxy[1,2]dioxepino[4,3-i]isochromen-10-yl)oxy)-2-naphthoic acid] | 53.7 nM | 220 nM
12 | C[C@H]1[C@@H](OCc2c(F)cc(C(=O)O)cc2Cl)O[C@@H]2O[C@@]3(C)CC[C@H]4[C@H](C)CC[C@@H]1[C@@]24OO3 [Compound 215, 3-chloro-5-fluoro-4-((((3R,5aS,6R,8aS, 9R,10S,12R, 12aR)-3,6,9-trimethyldeca-hydro-12H-3,12-epoxy[1,2]dioxepino[4,3-i]isochromen-10-yl)oxy)methyl) benzoic acid] | 66.5 nM | 5510 nM
13 | C[C@H]1[C@@H](OCc2c(Cl)cc(C(=O)O)cc2S(C)(=O)=O)O[C@@H]2O[C@@]3(C)CC[C@H]4[C@H](C)CC[C@@H]1[C@@]24OO3 [Compound 216, 3-chloro-5-(methylsulfonyl)-4-((((3R,5aS,6R,8aS, 9R,10S,12R, 12aR)-3,6,9-trimethyldeca-hydro-12H-3,12-epoxy[1,2]dioxepino[4,3-i]isochromen-10-yl)oxy)methyl) benzoic acid] | 7180 nM | > 20000 nM
14 | C[C@H]1[C@H](OCc2c(Cl)cc(C(=O)O)cc2S(C)(=O)=O)O[C@@H]2O[C@@]3(C)CC[C@H]4[C@H](C)CC[C@@H]1[C@@]24OO3 [Compound 217, 3-chloro-5-(methylsulfonyl)-4-((((3R,5aS,6R,8aS, 9R,10R,12R, 12aR)-3,6,9-trimethyldeca-hydro-12H-3,12-epoxy[1,2]dioxepino[4,3-i]isochromen-10-yl)oxy)methyl) benzoic acid] | 53.1 nM | 3000 nM
15 | C[C@H]1[C@@H](Oc2ccc(OCC(=O)O)cc2Cl)O[C@@H]2O[C@@]3(C)CC[C@H]4[C@H](C)CC[C@@H]1[C@@]24OO3 [Compound 218, 2-(3-chloro-4-(((3R,5aS,6R,8aS, 9R,10S,12R, 12aR)-3,6,9-trimethyldeca-hydro-12H-3,12-epoxy[1,2]dioxepino[4,3-i]isochromen-10-yl)oxy)phenoxy) acetic acid] | 101 nM | 690 nM
16 | C[C@H]1[C@@H](Oc2ccc(COCC(=O)O)cc2)O[C@@H]2O[C@@]3(C)CC[C@H]4[C@H](C)CC[C@@H]1[C@@]24OO3 [Compound 219, 2-((4-(((3R,5aS,6R,8aS, 9R,10S,12R, 12aR)-3,6,9-trimethyldeca-hydro-12H-3,12-epoxy[1,2]dioxepino[4,3-i]isochromen-10-yl)oxy)benzyl)oxy)acetic acid] | 62 nM | 13100 nM
17 | C[C@H]1[C@@H](Oc2cc(F)cc(OCC(=O)O)c2)O[C@@H]2O[C@@]3(C)CC[C@H]4[C@H](C)CC[C@@H]1[C@@]24OO3 [Compound 220, 2-(3-fluoro-5-(((3R,5aS,6R,8aS, 9R,10S,12R, 12aR)-3,6,9-trimethyldeca-hydro-12H-3,12-epoxy[1,2]dioxepino[4,3-i]isochromen-10-yl)oxy)phenoxy) acetic acid] | 70.8 nM | 1880 nM
18 | C[C@H]1[C@@H](Oc2ccc(OC(C)(C)C(=O)O)cc2)O[C@@H]2O[C@@]3(C)CC[C@H]4[C@H](C)CC[C@@H]1[C@@]24OO3 [Compound 221, 2-methyl-2-(4-(((3R,5aS,6R,8aS, 9R,10S,12R, 12aR)-3,6,9-trimethyldeca-hydro-12H-3,12-epoxy[1,2]dioxepino[4,3-i]isochromen-10-yl)oxy)phenoxy) propanoic acid] | 124 nM | 9610 nM
19 | C[C@H]1[C@@H](OCC2(F)CCCC(C(=O)O)C2)O[C@@H]2O[C@@]3(C)CC[C@H]4[C@H](C)CC[C@@H]1[C@@]24OO3 (stereo partly drawn) [Compound 222, 3-fluoro-3-((((3R,5aS,6R,8aS, 9R,10S,12R, 12aR)-3,6,9-trimethyldeca-hydro-12H-3,12-epoxy[1,2]dioxepino[4,3-i]isochromen-10-yl)oxy)methyl) cyclohexane-1-carboxylic acid] | 134 nM | 19000 nM
20 | C[C@H]1[C@@H](OCc2ccc(OCC(=O)O)cc2Cl)O[C@@H]2O[C@@]3(C)CC[C@H]4[C@H](C)CC[C@@H]1[C@@]24OO3 [Compound 223, 2-(3-chloro-4-((((3R,5aS,6R,8aS, 9R,10S,12R, 12aR)-3,6,9-trimethyldeca-hydro-12H-3,12-epoxy[1,2]dioxepino[4,3-i]isochromen-10-yl)oxy)methyl)phenoxy)acetic acid] | 111 nM | 2840 nM
21 | C[C@H]1[C@@H](O[C@H]2CC[C@@H](OCC(=O)O)CC2)O[C@@H]2O[C@@]3(C)CC[C@H]4[C@H](C)CC[C@@H]1[C@@]24OO3 [Compound 224, 2-(((1R,4s)-4-(((3R,5aS,6R,8aS, 9R,10S,12R, 12aR)-3,6,9-trimethyldeca-hydro-12H-3,12-epoxy[1,2]dioxepino[4,3-i]isochromen-10-yl)oxy)cyclohexyl)oxy)acetic acid] | 8040 nM | > 20000 nM
22 | C[C@H]1[C@@H](OC2CCc3cc(C(=O)O)ccc32)O[C@@H]2O[C@@]3(C)CC[C@H]4[C@H](C)CC[C@@H]1[C@@]24OO3 (stereo partly drawn) [Compound 226, 1-(((3R,5aS,6R,8aS, 9R,10S,12R, 12aR)-3,6,9-trimethyldeca-hydro-12H-3,12-epoxy[1,2]dioxepino[4,3-i]isochromen-10-yl)oxy)-2,3-dihydro-1H-indene-5-carboxylic acid] | 51.2 nM | 12000 nM
